Measurements reported in patent US20070259879A1, “Piperazine and piperidine biaryl derivatives” (priority 2006, published 2007).

The molecules below were run on HIV-1 pseudotyped virus (assay: HIV-1 pseudotyped virus assay (luciferase reporter gene, single cycle of infection)). Settings: Human immunodeficiency virus 1, CCR5, 72 h, read-out: Activity (antiviral activity, IC50).
Assay type: cell-based
Description: In this example are illustrated experimental procedures for determining biological activity, such as antiviral activity. For determining biological activity, an HIV-1 infection assay was used to determine the antiviral potency for compounds of the present invention.
For determining biological activity, an HIV-1 pseudotyped virus assay was used to determine the respective antiviral potencies of each compound tested in the assay for comparison. The pseudotyped assay scores for a reduction in infection as indicated by decreased signal from the reporter gene encoding a luciferase enzyme (“reporter gene”). The assay employs cell lines expressing CD4 and either of the primary chemokine receptors (CCR5 or CXCR4) that HIV uses as a co-receptor (“target cells”). Pseudotyped virus was prepared by co-transfection of 293T cells with: 1) a plasmid construct carrying the HIV-1 envelope of choice, in combination with 2) a pseudotyped virus backbone construct in which (a) envelope expression has been abrogated due to a frameshift in the envelope sequence, and (b) the reporter gene replaces nef. Expression of HIV-1 envelope on 293T packaging cells results in the production of a pseudotyped virus carrying the reporter gene that is capable of a single cycle of infection.
The compounds of the present invention being tested for antiviral activity were serially diluted and dose responses determined in duplicate in two separate experiments. The compounds to be tested were added directly to the plated, target cells, followed by the addition of pseudotyped virus described above. The cells were cultured for three days prior harvest. Media and compound were removed, the cell monolayer was washed, lysed by detergent, and then frozen at −80 degrees C. for a minimum of 30 minutes. Following thawing and acclimation to room temperature, luciferase production was quatified by injecting 100 […]I of a substrate (of the enzyme encoded by the reporter gene) into each well followed by detecting the signal (light emitted from the interaction between the enzyme and substrate) after 5 seconds. In the pseudotyped assay, a 50% reduction in signal is significant, and provides the primary cutoff value for assessing antiviral activity (“IC50” is defined as the dilution resulting in a 50% reduction in enzymatic activity as interpolated from a titration curve). Representative compounds according to the present invention, and their antiviral activity, are illustrated in Table 3.

Going from `C[C@@H]1CN(C(=O)c2ccccc2)CCN1S(=O)(=O)c1ccc(-c2c[nH]nn2)cc1` [Example 120, {(R)-3-Methyl-4-[4-(1H-[1,2,3]triazol-4-yl)-benzenesulfonyl]-piperazin-1-yl)-phenyl-methanone] to `CC1CN(C(=O)c2ccccc2)CCN1S(=O)(=O)c1ccc(-n2cncn2)cc1` (stereo not drawn) [Example 118, [3-Methyl-4-(4-[1,2,4]triazol-1-yl-benzenesulfonyl)-piperazin-1-yl]-phenyl-methanone], the IC50 rises from < 5 µM to > 5 µM.

`C[C@@H]1CN(C(=O)c2ccccc2)CCN1C(=O)C(=O)c1cccc(-c2ccccn2)c1` [Example 252] and `C[C@@H]1CN(C(=O)c2ccccc2)CCN1C(=O)C(=O)c1c[nH]c(-c2cccnc2)c1` [Example 196] cannot be ordered by IC50: > 5 µM for the first, > 5 µM for the second.

`C[C@@H]1CN(C(=O)c2ccccc2)CCN1S(=O)(=O)c1ccc(C(=O)c2cccs2)cc1` [Example 245] and `CC1CN(C(=O)c2ccccc2)CCN1S(=O)(=O)c1ccc(C(=O)c2ccco2)s1` (stereo not drawn) [Example 110, {4-[5-(Furan-2-carbonyl)-thiophene-2-sulfonyl]-3-methyl-piperazin-1-yl}-phenylmethanone] cannot be ordered by IC50: > 5 µM for the first, > 5 µM for the second.

First: CNc1cc(-c2cc[nH]n2)ccc1C(=O)C(=O)N1CCN(C(=O)c2ccccc2)C[C@H]1C [Example 227]
Second: C[C@@H]1CN(C(=O)c2ccccc2)CCN1C(=O)C(=O)c1ccc(-c2cc[nH]n2)cc1F [Example 183]
The IC50 of the first is higher: > 5 µM for the first, < 5 µM for the second. The second is the more potent here.

`Cc1cccc(-c2ccc(S(=O)(=O)N3CCN(C(=O)c4ccccc4)CC3C)s2)n1` (stereo not drawn) [Example 137, (3-methyl-4-(5-(6-methylpyridin-2-yl)thiophen-2-ylsulfonyl)piperazin-1-yl)(phenyl)methanone] and `Cc1ccc(-c2ccc(S(=O)(=O)N3CCN(C(=O)c4ccccc4)CC3C)s2)nn1` (stereo not drawn) [Example 146, (3-methyl-4-(5-(6-methylpyridazin-3-yl)thiophen-2-ylsulfonyl)piperazin-1-yl)(phenyl)methanone] cannot be ordered by IC50: > 5 µM for the first, > 5 µM for the second.

`C[C@@H]1CN(C(=O)c2ccccc2)CCN1C(=O)C(=O)c1ccc(N2CCOC2=O)cc1` [Example 212, 1-((R)-4-Benzoyl-2-methyl-piperazin-1-yl)-2-[4-(2-oxo-oxazolidin-3-yl)-phenyl]-ethane-1,2-dione] and `C[C@@H]1CN(C(=O)c2ccccc2)CCN1C(=O)C(=O)c1ccc(N2CCCC2)cc1` [Example 211, 1-((R)-4-Benzoyl-2-methyl-piperazin-1-yl)-2-(4-pyrrolidin-1-yl-phenyl)-ethane-1,2-dione] cannot be ordered by IC50: > 5 µM for the first, > 5 µM for the second.

`C[C@@H]1CN(C(=O)c2ccccc2)CCN1C(=O)C(=O)c1ccc(-c2ccncc2)cc1` [Example 206] and `CC1CN(C(=O)c2ccccc2)CCN1C(=O)C(=O)c1ccc(-c2cnn(C)c2)cc1` (stereo not drawn) [Example 197] cannot be ordered by IC50: < 5 µM for the first, < 5 µM for the second.

`CC1CN(C(=O)c2ccccc2)CCN1S(=O)(=O)c1ccc(C(=O)c2cnc[nH]2)s1` (stereo not drawn) [Example 111, {4-[5-(3H-Imidazole-4-carbonyl)-thiophene-2-sulfonyl]-3-methyl-piperazin-1-yl}-phenyl-methanone] and `C[C@@H]1CN(C(=O)c2ccccc2)CCN1S(=O)(=O)c1ccc(C(=O)c2ccon2)s1` [Example 248] cannot be ordered by IC50: > 5 µM for the first, > 5 µM for the second.

First: Cc1cc(-c2cc(Cl)c(C(=O)C(=O)N3CCN(C(=O)c4ccccc4)C[C@H]3C)c(Cl)c2)on1 [Example 220]
Second: COc1cc(-c2cc(C)no2)ccc1C(=O)C(=O)N1CCN(C(=O)c2ccccc2)C[C@H]1C [Example 180]
The IC50 of the first is higher: > 5 µM for the first, < 5 µM for the second. The second is the more potent here.

First: CC1CN(C(=O)c2ccccc2)CCN1S(=O)(=O)c1ccc(-c2ncccn2)s1 (stereo not drawn) [Example 141, (3-methyl-4-(5-(pyrimidin-2-yl)thiophen-2-ylsulfonyl)piperazin-1-yl)(phenyl)methanone]
Second: Cc1cccnc1-c1ccc(S(=O)(=O)N2CCN(C(=O)c3ccccc3)CC2C)s1 (stereo not drawn) [Example 139, (3-methyl-4-(5-(3-methylpyridin-2-yl)thiophen-2-ylsulfonyl)piperazin-1-yl)(phenyl)methanone]
The IC50 of the first is lower: < 5 µM for the first, > 5 µM for the second. The first is the more potent here.

`Cc1cc(C(=O)C(=O)N2CCN(C(=O)c3ccccc3)C[C@H]2C)ccc1-c1cc[nH]n1` [Example 184, 1-((R)-4-Benzoyl-2-methyl-piperazin-1-yl)-2-[3-methyl-4-(1H-pyrazol-3-yl)-phenyl]-ethane-1,2-dione] and `C[C@@H]1CN(C(=O)c2ccccc2)CCN1C(=O)C(=O)c1ccc(Br)c(Cl)c1` [Example 225] cannot be ordered by IC50: < 5 µM for the first, < 5 µM for the second.

`CC1CN(C(=O)c2ccccc2)CCN1C(=O)C(=O)c1ccc(-c2ncccc2F)cc1` (stereo not drawn) [Example 200] and `Cc1ccnc(-c2ccc(C(=O)C(=O)N3CCN(C(=O)c4ccccc4)CC3C)cc2)n1` (stereo not drawn) [Example 208] cannot be ordered by IC50: < 5 µM for the first, < 5 µM for the second.

Going from `Cc1noc(C)c1-c1ccc(C(=O)C(=O)N2CCN(C(=O)c3ccccc3)C[C@H]2C)cn1` [Example 194] to `COc1cc(-c2onc(C)c2Cl)ccc1C(=O)C(=O)N1CCN(C(=O)c2ccccc2)C[C@H]1C` [Example 229], the IC50 falls from > 5 µM to < 5 µM. The second is the more potent here.

Compared with `C[C@@H]1CN(C(=O)c2ccccc2)CCN1C(=O)C(=O)c1ccc(-c2cscn2)s1` [Example 178], `C[C@@H]1CN(C(=O)c2ccccc2)CCN1C(=O)C(=O)c1ccc(-c2nccn2C)s1` [Example 188] is higher in IC50: < 5 µM for the first, > 5 µM for the second.

`Cc1cc(-n2ccnc2)ccc1C(=O)C(=O)N1CCN(C(=O)c2ccccc2)C[C@H]1C` [Example 218] and `COc1cc(Br)ccc1C(=O)C(=O)N1CCN(C(=O)c2ccccc2)C[C@H]1C` [Example 226] cannot be ordered by IC50: < 5 µM for the first, < 5 µM for the second.

`C[C@@H]1CN(C(=O)c2ccccc2)CCN1S(=O)(=O)c1ccc(-c2csnn2)s1` [Example 165, [(R)-3-Methyl-4-(5-[1,2,3]thiadiazol-4-yl-thiophene-2-sulfonyl)-piperazin-1-yl]-phenyl-methanone] and `Cc1noc(-c2ccc(S(=O)(=O)N3CCN(C(=O)c4ccccc4)CC3C)s2)n1` (stereo not drawn) [Example 107, {3-Methyl-4-[5-(3-methyl-[1,2,4]oxadiazol-5-yl)-thiophene-2-sulfonyl]-piperazin-1-yl}-phenyl-methanone] cannot be ordered by IC50: > 5 µM for the first, > 5 µM for the second.

`CC1CN(C(=O)c2ccccc2)CCN1S(=O)(=O)c1ccc(-c2cccnc2)s1` (stereo not drawn) [Example 150, (3-methyl-4-(5-(pyridin-3-yl)thiophen-2-ylsulfonyl)piperazin-1-yl)(phenyl)methanone] and `Cc1nc2cc(-c3ccc(S(=O)(=O)N4CCN(C(=O)c5ccccc5)CC4C)s3)ccc2s1` (stereo not drawn) [Example 158, (3-methyl-4-(5-(2-methylbenzo[d]thiazol-5-yl)thiophen-2-ylsulfonyl)piperazin-1-yl)(phenyl)methanone] cannot be ordered by IC50: > 5 µM for the first, > 5 µM for the second.

`CC(=O)c1ccc(-n2cc(-c3ccc(S(=O)(=O)N4CCN(C(=O)c5ccccc5)C[C@H]4C)s3)nn2)cc1` [Example 128] and `C[C@@H]1CN(C(=O)c2ccccc2)CCN1S(=O)(=O)c1ccc(-c2cc(C(=O)c3ccc(Cl)cc3)no2)s1` [Example 132, ((R)-4-{5-[3-(4-Chloro-benzoyl)-isoxazol-5-yl]-thiophene-2-sulfonyl}-3-methyl-piperazin-1-yl)-phenyl-methanone] cannot be ordered by IC50: > 5 µM for the first, > 5 µM for the second.

`CC1CN(C(=O)c2ccccc2)CCN1S(=O)(=O)c1ccc(-c2ccc(-c3ccccc3)nn2)s1` (stereo not drawn) [Example 156, (3-methyl-4-(5-(6-phenylpyridazin-3-yl)thiophen-2-ylsulfonyl)piperazin-1-yl)(phenyl)methanone] and `C[C@@H]1CN(C(=O)c2ccccc2)CCN1C(=O)C(=O)c1cnc(-c2ccccc2)c(Cl)c1O` [Example 242] cannot be ordered by IC50: > 5 µM for the first, > 5 µM for the second.

`CC1CN(C(=O)c2ccccc2)CCN1S(=O)(=O)c1cccc(-n2ccnn2)c1` (stereo not drawn) [Example 113, [3-Methyl-4-(3-[1,2,3]triazol-1-yl-benzenesulfonyl)-piperazin-1-yl]-phenyl-methanone] and `C[C@@H]1CN(C(=O)c2ccccc2)CCN1C(=O)C(=O)c1ccc(-n2ccnn2)c(Cl)c1` [Example 232] cannot be ordered by IC50: > 5 µM for the first, > 5 µM for the second.

First: CO/N=C(\c1ccccc1)N1CCN(C(=O)C(=O)c2ccc(-c3cnco3)cc2)[C@H](C)C1 [Example 106, 1-((R)-4-{[Methoxyimino]-phenyl-methyl}-2-methyl-piperazin-1-yl)-2-(4-oxazol-5-yl-phenyl)-ethane-1,2-dione]
Second: COc1cc(OC)nc(-c2ccc(C(=O)C(=O)N3CCN(C(=O)c4ccccc4)C[C@H]3C)cc2)n1 [Example 254]
The IC50 of the first is lower: < 5 µM for the first, > 5 µM for the second.

`C[C@@H]1CN(C(=O)c2ccccc2)CCN1C(=O)C(=O)c1ccc(-n2cncn2)c(Cl)c1` [Example 231] and `Cc1ncc(-c2ccc(C(=O)C(=O)N3CCN(C(=O)c4ccccc4)C[C@H]3C)s2)s1` [Example 182] cannot be ordered by IC50: > 5 µM for the first, > 5 µM for the second.

`CON(C)C(=O)c1ccc(S(=O)(=O)N2CCN(C(=O)c3ccccc3)CC2C)s1` (stereo not drawn) [Example 108, 5-(4-Benzoyl-2-methyl-piperazine-1-sulfonyl)-thiophene-2-carboxylic acid methoxy-methyl-amide] was tested, and the IC50 was < 5 µM.
